Here are results for two molecules from PMC4047118, “BM-1197: A Novel and Specific Bcl-2/Bcl-xL Inhibitor Inducing Complete and Long-Lasting Tumor Regression In Vivo” (PLoS ONE, 2014).

Data set [1] addresses Bcl-2 (Homo sapiens, UniProt P10415). The following applies: cited from earlier work.
Data set [2] concerns the target Bcl-xL (Homo sapiens, UniProt Q07817). Conditions: cited from earlier work.
The test system of data set [3] is four small-cell lung cancer cell lines sensitive to ABT-263. The arrangement: method as in PMID 23448298. The following applies: cited from earlier work.
Data set [4] has as its system H146 small-cell lung cancer xenograft. The arrangement: method as in PMID 23448298. Conditions: H146 xenograft in SCID mice; cited from earlier work.
Data set [5] relates to MCL1-wild-type (WT) MEF cells. Nature of the data set: cell growth inhibition, WST assay, wild-type MEF. The class given is cell-based. The following applies: Mus musculus, 72 h, 3 days. How it is done: (§1) All the SCLC cell lines were purchased from American Type Culture Collection (Manassas, VA) and cultured as recommended. All these cell lines were passaged fewer than 6 months after purchase. MCL1 knockout (MCL1^−/−) MEF cells were kindly provided by Dr. David Huang (The Walter and Eliza Hall Institute of Medical Research, Melbourne, Australia). Cell growth inhibition was evaluated by means of a WST-8 assay (Dojindo, Rockville, MD) as described previously. Mitochondrial membrane potential was determined by JC-1 staining using a JC-1 Mitochondrial Membrane Potential Assay kit (Cayman). Apoptosis analysis was performed using an Annexin V/propidium iodide (PI) apoptosis detection kit (Roche Applied Sciences, Indianapolis, IN).
(§2) (B) MCL1^−/− cells were treated with 100 nM of BM-1197 for 16 h and stained with Annexin V/PI for flow cytometry. […] They are given in the order upper left, upper right, lower left, lower right.

Data set [6] has as its system MCL1-deficient (MCL1−/−) MEF cells. The data set is described as follows: cell growth inhibition, WST assay, MCL1-deficient MEF. The class given is cell-based, mouse. The following applies: Mus musculus, MEF, 72 h; 3 days, WST assay. How it is done: as §1, §2
The target in data set [7] is T1, Bcl-xL (Mus musculus, UniProt Q64373).
T1 construct: endogenous in cells; host or cells: MEF MCL1-/- cells
The data set is described as follows: cellular thermal shift assay (CETSA), Bcl-xL. The class given is cell-based. Conditions: 1 µM, 1 h, MEF MCL1−/− cells. The method, then: (§3) Drug-target engagement was assessed using CETSA as described by Molina et al.. Briefly, cells were treated with drugs for 1 h, then harvested, washed with PBS, and resuspended in PBS. The resuspended cells were freeze-thawed 4 times. The soluble fraction (lysate) was separated from cell debris by centrifugation at 20000×g for 20 minutes at 4°C and then analyzed by Western blots.
(§4) Drug-treated cells were heated at gradient temperature from 42°C to 62°C for 3 min then freeze-thawed 4 times. The soluble fractions of the lysed cells were analyzed by immunoblotting. (B) MEF MCL1^− ^/− cells were treated with drugs at the indicated doses for 1 h before collected for CETSA.

Data set [8] addresses T2, Bcl-2 (Mus musculus, UniProt P10417).
T2 construct: endogenous in cells; host or cells: MEF MCL1-/- cells
Nature of the data set: cellular thermal shift assay (CETSA), Bcl-2. The class given is cell-based. Conditions: 1 µM, 1 h, MEF MCL1−/− cells. How it is done:
as §3, §4

For the next data set, the system named is H146. The data set is described as follows: SCLC cell growth inhibition (WST-8), H146. The class given is cell-based. Conditions: Homo sapiens. How it is done: as §1
Data are representative of two independent experiments.

The next data set deals with H1417. The data set is described as follows: SCLC cell growth inhibition (WST-8), H1417. The class given is cell-based. The following applies: Homo sapiens, NCI-H1417; 96-h incubation, means ± SD (n = 3–6). How it is done:
as §1

The subject of another data set is H1963. Nature of the data set: SCLC cell growth inhibition (WST-8), H1963. The class given is cell-based. The following applies: Homo sapiens, NCI-H1963; 96-h incubation, means ± SD (n = 3–6). The method, then: as §1
(In general: Tetrazolium assays rely on reduction of a dye to a coloured formazan, in cell work by metabolically active cells.)

Another data set has as its system H211. Nature of the data set: SCLC cell growth inhibition (WST-8), H211. The class given is cell-based. The following applies: Homo sapiens, NCI-H211; 96-h incubation, means ± SD (n = 3–6). The method, then:
as §1

The subject of the next data set is H187. Nature of the data set: SCLC cell growth inhibition (WST-8), H187. The class given is cell-based. The following applies: Homo sapiens, NCI-H187; 96-h incubation, means ± SD (n = 3–6). The method, then:
as §1

In the next data set the test system is DMS79. Nature of the data set: SCLC cell growth inhibition (WST-8), DMS79. The class given is cell-based. Conditions: Homo sapiens, DMS-79; 96-h incubation, means ± SD (n = 3–6). How it is done: as §1
Another data set concerns H889. Nature of the data set: SCLC cell growth inhibition (WST-8), H889. The class given is cell-based. The following applies: Homo sapiens, NCI-H889; 96-h incubation, means ± SD (n = 3–6). The method, then: as §1
In a further data set the test system is SW1271. Nature of the data set: SCLC cell growth inhibition (WST-8), SW1271. The class given is cell-based. Conditions: Homo sapiens, 96-h incubation, means ± SD (n = 3–6). The method, then:
as §1

Another data set concerns DMS53. Nature of the data set: SCLC cell growth inhibition (WST-8), DMS53. The class given is cell-based. Conditions: Homo sapiens, DMS-53; 96-h incubation, means ± SD (n = 3–6). How it is done: as §1
Another data set concerns H82. The data set is described as follows: SCLC cell growth inhibition (WST-8), H82. The class given is cell-based. Conditions: Homo sapiens, NCI-H82; 96-h incubation, means ± SD (n = 3–6). The method, then: as §1
The subject of another data set is DMS273. Nature of the data set: SCLC cell growth inhibition (WST-8), DMS273. The class given is cell-based. Conditions: Homo sapiens, DMS-273; 96-h incubation, means ± SD (n = 3–6). How it is done:
as §1

A further data set has as its system H196. The data set is described as follows: SCLC cell growth inhibition (WST-8), H196. Conditions: Homo sapiens, NCI-H196; 96-h incubation, means ± SD (n = 3–6). The class given is cell-based. How it is done:
as §1

The next data set relates to H146 xenograft tumors. The data set is described as follows: H146 subcutaneous xenograft model. The class given is in vivo, SCID mice. The method, then:
Tumor sizes were measured 2–3 times per week. Tumor growth inhibition was calculated by using the formula: 100% (mean volume of controls - mean volume of treated)/mean volume of controls.
Figure 10 In vivo antitumor activity of BM-1197. […] Data shown are mean ± SEM for 6–8 mice. (E & F) SCID mice bearing H146 or H1963 cells were treated with 10 mg/kg of BM-1197 IV for the indicated times. Tumor lysates were analyzed by immunoblotting.

One may read the Ki as a measure of affinity in units of concentration, obtained from inhibition or displacement. As a reminder, the IC50 is the concentration that gives 50% inhibition.

Where two headings read alike, the source gives them in different places. Some results are limits rather than exact numbers.

Chain of Bcl-xL (Homo sapiens, UniProt Q07817) (Q07817 whole entry): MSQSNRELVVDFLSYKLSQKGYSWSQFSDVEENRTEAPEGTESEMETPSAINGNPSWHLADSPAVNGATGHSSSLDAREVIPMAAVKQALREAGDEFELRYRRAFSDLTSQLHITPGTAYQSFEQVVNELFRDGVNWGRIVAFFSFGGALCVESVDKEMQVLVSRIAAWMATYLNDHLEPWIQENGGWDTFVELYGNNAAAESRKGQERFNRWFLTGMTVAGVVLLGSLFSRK
T2 sequence (P10417 whole entry): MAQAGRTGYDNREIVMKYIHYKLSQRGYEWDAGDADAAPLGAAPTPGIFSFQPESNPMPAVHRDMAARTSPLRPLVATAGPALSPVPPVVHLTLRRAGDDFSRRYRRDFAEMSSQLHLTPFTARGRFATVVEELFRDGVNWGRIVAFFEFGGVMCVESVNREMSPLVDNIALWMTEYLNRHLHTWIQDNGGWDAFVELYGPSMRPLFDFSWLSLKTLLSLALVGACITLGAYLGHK
Chain of Bcl-2 (Homo sapiens, UniProt P10415) (P10415 whole entry): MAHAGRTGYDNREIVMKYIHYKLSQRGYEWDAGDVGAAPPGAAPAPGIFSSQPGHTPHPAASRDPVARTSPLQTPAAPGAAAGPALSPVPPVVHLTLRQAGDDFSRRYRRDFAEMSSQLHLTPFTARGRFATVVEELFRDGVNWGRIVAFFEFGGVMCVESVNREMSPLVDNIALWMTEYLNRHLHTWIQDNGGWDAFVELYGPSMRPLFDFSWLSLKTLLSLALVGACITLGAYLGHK
T1 sequence (Q64373 whole entry): as the sequence (Q07817 whole entry) above, with G40E, S43A, M45R, A168S, E193D counted along it

In the case of `Cc1c(C(=O)NS(C)(=O)=O)c(-c2cccc(N3CCN(c4ccc(NS(=O)(=O)c5ccc(N[C@H](CCN(C)C)CSc6ccccc6)c([N+](=O)[O-])c5)cc4)CC3)c2)c(-c2ccc(Cl)cc2)n1C(C)C` [BM-1074], the Ki at Bcl-2 [1] and on Bcl-xL [2] was < 0.001 µM each time. In addition, in data set [3] (four small-cell lung cancer cell lines sensitive to ABT-263, read-out: IC50 cancer cell growth), the IC50 is 0.001 to 0.002 µM. Also, the “times more potent than ABT-263” value in [3] (four small-cell lung cancer cell lines) is recorded as > 10 times. For the same molecule, the tumor regression result in data set [4] is “rapid, complete, and durable tumor regression”.
Take `CC1(C)CCC(c2ccc(Cl)cc2)=C(CN2CCN(c3ccc(C(=O)NS(=O)(=O)c4ccc(N[C@H](CCN5CCOCC5)CSc5ccccc5)c(S(=O)(=O)C(F)(F)F)c4)cc3)CC2)C1` [ABT-263, reference compound]: the half-maximal inhibitory concentration (IC50) in [5] was > 2 µM; in data set [6], 0.041 ± 0.003 µM; in the data set with H146 (NCI-H146, 96 h, read-out: IC50 (1% FBS), H146, 4 days, WST assay, 1% FBS), 0.0035 µM; in the data set with H146 (NCI-H146, 96 h, read-out: IC50 (1% FBS+3% HSA), H146, 4 days, WST assay, 1% FBS+3% HSA) it was 0.083 µM; in the data set with H146 (NCI-H146, 96 h, read-out: IC50 (10% FBS), H146, 4 days, WST assay, 10% FBS) it was 0.0268 µM; with H146 (NCI-H146, 96 h, read-out: IC50 (50% FBS), H146, 4 days, WST assay, 50% FBS), 0.0752 µM. For the same molecule, the IC50 in the data set with H146 (NCI-H146, 96-h incubation, means ± SD (n = 3–6), read-out: IC50 cell growth, H146) was found to be 0.024 ± 0.012 µM; in the data set on H1417, 0.079 ± 0.031 µM; in the data set on H1963 it was 0.03 ± 0.017 µM; in the data set on H211, 0.066 ± 0.05 µM; with H187, 0.07 ± 0.029 µM; with DMS79 it was 0.43 ± 0.343 µM. Besides, the IC50 is 0.03 ± 0.011 µM with H889; > 2 µM with SW1271; 0.197 ± 0.05 µM with DMS53; > 2 µM in the data set with H82; > 2 µM with DMS273; > 2 µM with H196. For the same molecule, the “thermal stability of Bcl-xL protein” value at Bcl-xL [7] is reported as “enhanced”. Further, the “thermal stability of Bcl-2 protein” value on Bcl-2 [8] is “enhanced”. In the data set with H146 xenograft tumors (100 mg/kg daily oral dosing), the “tumors regrown 29 days after the last treatment” value is “Four out of 8”. Moreover, the “tumors regrown 57 days after the last treatment” value in the data set on H146 xenograft tumors (100 mg/kg daily oral dosing) is listed as 7 of the 8. Moreover, in the data set on H146 xenograft tumors (100 mg/kg daily oral dosing (5 days per week), 14 days after the start of the treatment), the tumor regression entry is “regressed H146 tumors to a barely palpable state”. Moreover, the “weight loss compared to control group” value in the data set with H146 xenograft tumors (all dose-schedules in H146 model, no other signs of toxicity) was “no statistically significant weight loss”.
